Columns and labels:
athymic rat model of PAH = assay: SU5416 athymic nude rat model of PAH (PH); type: in vivo; settings: for reversal of established PH / PH-related death: treatment started 21 days (3 wk) after SU5416, doses as in b355, assessed at wk 5
Protocol: (§1) In the model, PH was first initiated by a single injection of a VEGFR2 inhibitor, SU5416, and monitored by weekly echocardiography. Survival of the animals was recorded on daily basis. […] After 5 weeks (day 35), animals were sacrificed after right heart catheterization. […] Oral availability of ubenimex was determined by pharmacokinetic analysis.
The athymic nude rat model is an accepted model of severe PAH associated with immune dysregulation. Athymic nude rats (rnu/rnu) (Charles River Laboratories) were used for these studies. Six to eight week old animals were injected subcutaneously (s.c.) with a single dose of either SU5416 (SU) (10 mg/kg) dissolved in DMSO or DMSO (vehicle) alone. All animals were maintained in normoxic conditions. PH progression was monitored by weekly echocardiography (ECHO). Survival of rats was monitored out to wk 5 when they underwent a terminal right heart catheterization. PH was confirmed by ECHO. Hemodynamic measurements included right ventricular systolic pressure (RVSP) determined by right heart catheterization and right ventricular hypertrophy (RVH) determined by the weight ratio of RV/(LV+S) (right ventricle/(left ventricle+septum)).
All animals were sacrificed 5 wk after SU administration for hemodynamic measurements. […] Serial improvement was observed from the time of treatment initiation. Interval improvement was manifested by decreasing RV wall thickness and increasing pulmonary artery acceleration times (PAAT) after initiation of treatment. […] Here again, the compound of Formula III was notable: treatment with that compound yielded an RVH ratio of 0.29. RVH for healthy rats is generally about 0.25.

[1] = Pharmacokinetic analysis of oral ubenimex formulation; type: in vivo, rat; settings: PEG-400/HPCD formulation
Protocol: as §1
(not a statin-derivative), is a well-tolerated LTA4H inhibitor that blocks LTB4 formation. […] Ubenimex efficacy in reversing PAH was dose-dependent. The sustained release oral formulation was absorbed rapidly within 2-3 hours and was eliminated from the body with a T1/2 of 12 hours.
A 20% (w/v) aqueous solution of hydroxypropyl-β-cyclodextrin (HPCD) was added to the mixture to bring the volume to 50 ml.

[2] = system: model of rodent PH utilizing SU and exposure to chronic hypoxia; assay: Rodent PH model utilizing SU and chronic hypoxia (animals not prone to immune dysregulation); type: in vivo; settings: therapy initiated late in disease development

CC(C)C[C@H](NC(=O)[C@@H](O)[C@H](N)Cc1ccccc1)C(=O)O [ubenimex, (2S)-2-[[(2S,3R)-3-amino-2-hydroxy-4-phenylbutanoyl]amino]-4-methylpentanoic acid]
accumulation of 5-LO expressing periarteriolar macrophages and B cells in lungs (athymic rat model of PAH; SU-treated athymic rats): significantly reduced
in vivo PAEC apoptosis (athymic rat model of PAH; SU-treated athymic rats): reduced
improvement in RVSP, RVH and survival (athymic rat model of PAH; oral once a day 0.25, 0.5, 0.75, 1 mg/kg, from 3 weeks after SU5416 for 2 weeks): dose dependent improvement
prevention of PH development and survival (athymic rat model of PAH; systemic therapy initiated when SU was first administered): very effectively prevented PH development and prolonged survival
reversal of established PH / PH-related death (athymic rat model of PAH): reverses established PH
reversal of established PH / PH-related death (athymic rat model of PAH; listed as Ubenimex): dose-dependent
time of absorption [1]: ≤ 2 h
half-life ([1]; athymic, rat, in vivo): 12 h
response of PH animals to therapy [2]: did not respond

Source: patent US9861601B2 (The Board of Trustees of the Leland Stanford Junior …, priority 2012, dated 2018)
